According to patent publication US20210395210A1, “INHIBITION OF BACTERIAL CHAPERONIN SYSTEMS” (THE TRUSTEES OF INDIANA UNIVERSITY, priority 2018, published 2021):
Where two headings read alike, the source gives them in different places.

Columns and labels:
[1] = test system: Pseudomonas aeruginosa (ATCC 10145); assay: Bacterial proliferation assay, P. aeruginosa; assay type: cell-based
Procedure, shortened: (§1)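 Cation-adjusted BHI (25 mg/L Ca2+, 12.5 mg/L Mg2+); inoculum OD600 0.017; static 37 °C. Read OD600 at 6-8 h for S. aureus, E. cloacae, P. aeruginosa; 24 h for A. baumannii.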

native MDH = target: T1, native MDH (Sus scrofa, UniProt P00346); assay: Counter-screen for inhibition of native MDH enzymatic activity; assay type: biochemical, pig
T1 construct: soluble pig heart MDH from Roche, product #10127248001; purchased Roche 10127248001; host or cells: pig heart
T1 sequence (P00346 25-338): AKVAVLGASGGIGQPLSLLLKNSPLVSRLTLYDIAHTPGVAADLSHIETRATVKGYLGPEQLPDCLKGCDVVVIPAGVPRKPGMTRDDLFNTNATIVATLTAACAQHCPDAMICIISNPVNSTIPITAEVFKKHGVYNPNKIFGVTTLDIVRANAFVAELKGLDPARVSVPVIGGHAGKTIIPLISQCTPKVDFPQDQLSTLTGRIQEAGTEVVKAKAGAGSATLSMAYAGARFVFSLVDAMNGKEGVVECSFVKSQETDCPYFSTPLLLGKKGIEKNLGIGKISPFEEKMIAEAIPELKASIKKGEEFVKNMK
Procedure, shortened: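 Fully refolded MDH, produced by a 45 min, 37 °C GroEL/ES reaction and stopped with EDTA, was then dosed with compound (62.5 μM–29 nM, 8 points, 3-fold). Activity was read as A340 NADH decrease until ~90% consumed; reported IC50s are means of at least quadruplicate runs.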

[2] = test system: Enterobacter cloacae (ATCC 13047); assay: Bacterial proliferation assay, E. cloacae; assay type: cell-based
Procedure, shortened: as §1

[3] = test system: Klebsiella Pneumonia (ATCC 13883); assay: Bacterial proliferation assay, K. pneumoniae; assay type: cell-based
Procedure, shortened: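 Growth inhibition of K. pneumoniae (ATCC 13883) was measured in cation-adjusted BHI broth. An overnight culture was sub-cultured 1:5 for 1-2 hours, then diluted to OD600 of 0.017 and dispensed into compound-stamped 384-well plates. Plates were sealed with oxygen-permeable membranes and incubated without shaking at 37° C. for 6-8 h. Absorbance at 600 nm was corrected against bacteria-free control plates, and EC50 was averaged from quadruplicate replicates.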

[4] = test system: Drug sensitive Staphylococcus aureus (ATCC 25923); assay: Bacterial proliferation assay, drug sensitive S. aureus; assay type: cell-based
Procedure, shortened: as §1

[5] = ATCC10145, OD600 at 6-8 h, read-out: Bacterial Proliferation EC50 P. aeruginosa
[6] = ATCC10145, log of EC50 (μM scale), with standard deviation, read-out: log(EC50) Bacterial Proliferation Assay P. aeruginosa (converted)
[7] = log of IC50 (μM scale), with standard deviation, read-out: log(IC50) Native MDH Reporter (converted)
[8] = read-out: Biochemical Assay IC50 Native MDH Reporter
[9] = ATCC13047, OD600 at 6-8 h, read-out: Bacterial Proliferation EC50 E. cloacae
[10] = ATCC13047, log of EC50 (μM scale), with standard deviation, read-out: log(EC50) Bacterial Proliferation Assay E. cloacae (converted)
[11] = ATCC13883, OD600 at 6-8 h, read-out: Bacterial Proliferation EC50 K. pneumoniae
[12] = ATCC13883, log of EC50 (μM scale), with standard deviation, read-out: log(EC50) Bacterial Proliferation Assay K. pneumoniae (converted)
[13] = ATCC25923, OD600 at 6-8 h, read-out: Bacterial Proliferation EC50 S. aureus Sensitive
[14] = ATCC25923, log of EC50 (μM scale), with standard deviation, read-out: log(EC50) Bacterial Proliferation Assay S. aureus Sensitive (converted)
[15] = ATCC10145, read-out: Bacterial Proliferation EC50 P. aeruginosa
[16] = ATCC10145, read-out: log(EC50) Bacterial Proliferation Assay P. aeruginosa (converted)
[17] = ATCC13047, read-out: Bacterial Proliferation EC50 E. cloacae
[18] = ATCC13047, read-out: log(EC50) Bacterial Proliferation Assay E. cloacae (converted)
[19] = ATCC13883, read-out: Bacterial Proliferation EC50 K. pneumoniae
[20] = ATCC13883, read-out: log(EC50) Bacterial Proliferation Assay K. pneumoniae (converted)
[21] = ATCC25923, read-out: Bacterial Proliferation EC50 S. aureus Sensitive
[22] = ATCC25923, read-out: log(EC50) Bacterial Proliferation Assay S. aureus Sensitive (converted)

| SMILES | EC50 [1, 5] [µM] | EC50 [1, 6] [µM] | IC50 (native MDH; [7]) [µM] | IC50 (native MDH; [8]) [µM] | EC50 [2, 9] [µM] | EC50 [2, 10] [µM] | EC50 [3, 11] [µM] | EC50 [3, 12] [µM] | EC50 [4, 13] [µM] | EC50 [4, 14] [µM] | further results |
| --- | --- | --- | --- | --- | --- | --- | --- | --- | --- | --- | --- |
| COc1ccccc1C(=O)Nc1cccc(Cl)c1 [Compound 40, N-(3-Chlorophenyl)-2-methoxybenzamide] | > 100 | > 100 | > 63.1 | > 63 | > 100 | > 100 | > 100 | > 100 | > 100 | > 100 | – |
| COc1c(Br)cc(Br)cc1C(=O)Nc1ccccc1 [Compound 41, 3,5-Dibromo-2-methoxy-N-phenylbenzamide] | > 100 | > 100 | > 63.1 | > 63 | > 100 | > 100 | > 100 | > 100 | > 100 | > 100 | – |
| COc1c(Br)cccc1C(=O)Nc1ccccc1 [Compound 42, 3-Bromo-2-methoxy-N-phenylbenzamide] | > 100 | > 100 | > 63.1 | > 63 | > 100 | > 100 | > 100 | > 100 | > 100 | > 100 | – |
| COc1ccc(Br)cc1C(=O)Nc1ccccc1 [Compound 43, 5-Bromo-2-methoxy-N-phenylbenzamide] | > 100 | > 100 | > 63.1 | > 63 | > 100 | > 100 | > 100 | > 100 | > 100 | > 100 | – |
| COc1ccccc1C(=O)Nc1ccccc1 [Compound 44, 2-Methoxy-N-phenylbenzamide] | > 100 | > 100 | > 63.1 | > 63 | > 100 | > 100 | > 100 | > 100 | > 100 | > 100 | – |
| O=C(Nc1ccc(Oc2ccc(Cl)cc2)c(Cl)c1)c1cc(I)cc(I)c1O [Rafoxanide, rafoxanide, reference compound] | – | – | – | – | – | – | – | – | – | – | EC50 [1, 15]: > 100 µM; EC50 [1, 16]: > 100 µM; log(IC50) Native MDH Reporter (native MDH; log of IC50 (μM scale), with standard deviation): 1.40 ± 0.34; EC50 [2, 17]: 40 µM; EC50 [2, 18]: 40.7 µM; EC50 [3, 19]: > 100 µM; EC50 [3, 20]: > 100 µM; EC50 [4, 21]: 0.32 µM; EC50 [4, 22]: 0.324 µM |
| CO[C@H]1/C=C/O[C@@]2(C)Oc3c(C)c(O)c4c(O)c(c(/C=N/N5CCN(C)CC5)c(O)c4c3C2=O)NC(=O)/C(C)=C\C=C\[C@H](C)[C@H](O)[C@@H](C)[C@@H](O)[C@@H](C)[C@H](OC(C)=O)[C@@H]1C [Rifampicin, rifampicin, reference compound] | 7.8 | 7.76 | > 63.1 | – | 8.8 | 8.71 | 11 | 11 | < 0.05 | < 0.0501 | – |
| CN[C@H](CC(C)C)C(=O)N[C@H]1C(=O)N[C@@H](CC(N)=O)C(=O)N[C@H]2C(=O)N[C@H]3C(=O)N[C@H](C(=O)N[C@H](C(=O)O)c4cc(O)cc(O)c4-c4cc3ccc4O)[C@H](O)c3ccc(c(Cl)c3)Oc3cc2cc(c3O[C@@H]2O[C@H](CO)[C@@H](O)[C@H](O)[C@H]2O[C@H]2C[C@](C)(N)[C@H](O)[C@H](C)O2)Oc2ccc(cc2Cl)[C@H]1O [Vancomycin, vancomycin, reference compound] | – | – | – | – | – | – | – | – | – | – | EC50 [1, 15]: > 100 µM; EC50 [1, 16]: > 100 µM; IC50 (native MDH; Biochemical Assay IC50 Native MDH Reporter): > 63 µM; IC50 (native MDH; log(IC50) Native MDH Reporter, log of IC50 (μM scale), with standard deviation): > 63.1 µM; EC50 [2, 17]: > 100 µM; EC50 [2, 18]: > 100 µM; EC50 [3, 19]: > 100 µM; EC50 [3, 20]: > 100 µM; EC50 [4, 21]: 0.67 µM; EC50 ([4]; ATCC25923, read-out: S. aureus Proliferation & Biofilm Assay EC50 Planktonic Growth): 0.67 µM; EC50 [4, 22]: 0.661 µM |
